The assay concerns the target Adenosine receptor A2a (Rattus norvegicus, UniProt P30543).

In general, Ki refers to the equilibrium dissociation constant of an inhibitor or competing ligand from its target. A high value points to weaker binding.

Adenosine receptor A2a, sequence (P30543 whole entry): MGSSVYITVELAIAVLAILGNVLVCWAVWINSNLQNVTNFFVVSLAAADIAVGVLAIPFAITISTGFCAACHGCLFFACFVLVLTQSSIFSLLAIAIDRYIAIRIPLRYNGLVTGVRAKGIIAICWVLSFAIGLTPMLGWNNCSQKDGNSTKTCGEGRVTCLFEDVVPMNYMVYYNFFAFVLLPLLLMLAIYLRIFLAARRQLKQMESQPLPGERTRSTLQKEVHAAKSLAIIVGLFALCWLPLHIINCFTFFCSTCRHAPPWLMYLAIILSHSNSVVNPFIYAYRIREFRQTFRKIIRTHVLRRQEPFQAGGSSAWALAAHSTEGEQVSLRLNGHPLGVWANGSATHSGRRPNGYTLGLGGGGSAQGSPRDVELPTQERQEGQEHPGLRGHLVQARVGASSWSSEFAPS

Compound `Nc1nc(Nc2ccccc2)nc2c1ncn2[C@@H]1O[C@H](CO)[C@H](O)C1O` (stereo partly specified) [(CV 1808) 2-(6-Amino-2-phenylamino-purin-9-yl)-5-hydroxymethyl-tetrahydro-furan-3,4-diol] yielded a Ki of 115 nM.
